Reference: patent publication USRE39593E1 (Gruenenthal GmbH, priority 1994, dated 2007)
Structures can show the parent of a compound that is named as a salt.

System: phenylquinone-induced writhing reaction
Assay: Phenylquinone-induced writhing test on mice
Assay type: in vivo
Conditions: Mus musculus, male NMRI mice; for ED50: oral administration 30 min before phenylquinone i.p., dose with 50% inhibition of writhing reaction; for inhibition at 25 mg/kg: 25 mg/kg per os, 30 min before phenylquinone i.p.
Procedure: The analgesic effectiveness of the compounds according to the invention was investigated in the phenylquinone-induced writhing test, modified according to I. C. Hendershot, J. Forsaith in J. Pharmacol. Exptl. Ther. 125, 237 (1959), on mice. Male NMRI mice with a weight between 25 and 30 g were used for this purpose. For each dose of substance, each 10 animals received, 30 minutes after the oral administration of a compound according to the invention, 0.3 ml per mouse of an 0.02% aqueous phenylquinone solution (phenylbenzoquinone manufactured by Sigma, Deisenhofen; solution prepared with the addition of 5% ethanol and kept on a water bath at 45° C.) administered intraperitoneally. Thereafter the animals were placed individually in observation cages. The number of pain-induced stretching movements (writhing reaction-straightening of the body with stretching of the rear extremities) was counted with the aid of a push-button counter. The Ed50 value (effective dose with 50% inhibition of writhing reaction) was calculated with a 95% confidence limit by means of regression analysis (evaluation program supplied by Martens EDV-Service, Eckental) from the dose-dependent decrease in the writhing reaction, by comparison with mice tested in parallel to which only phenylquinone had been administered.

SMILES	ED50	inhibition at 25 mg/kg
CC[C@](O)(c1cccc(OC)c1)[C@H](C)CN(C)C.Cl (racemic) [(1), (2RS,3RS)-1-dimethylamino-3-(3-methoxyphenyl)-2-methylpentan-3-ol Hydrochloride]	5.8 mg/kg	
CC[C@](O)(c1ccc(Cl)c(Cl)c1)[C@H](C)CN(C)C.Cl (racemic) [(2), (2RS,3RS)-3-(3,4-dichlorophenyl)-1-dimethylamino-2-methylpentan-3-ol Hydrochloride]	13.2 mg/kg	
CC[C@](O)(c1cccc(OC(C)C)c1)[C@H](C)CN(C)C (racemic) [(3), (2RS,3RS)-3-(3-isopropoxyphenyl)-1-dimethylamino-2-methylpentan-3-ol Hydrochloride]		81.3%
CC[C@](O)(c1cccc(Cl)c1)[C@H](C)CN(C)C.Cl (racemic) [(4), (2RS,3RS)-3-(3-chlorophenyl)-1-dimethylamino-2-methylpentan-3-ol Hydrochloride]	15.5 mg/kg	
CC[C@](O)(c1cccc(C(F)(F)F)c1)[C@H](C)CN(C)C.Cl (racemic) [(5), (2RS,3RS)-1-dimethylamino-2-methyl-3-(3-trifluoromethylphenyl)-pentan-3-ol Hydrochloride]	8.3 mg/kg	
CC[C@](O)(c1cccc(C)c1)[C@H](C)CN(C)C.Cl (racemic) [(6), (2RS,3RS)-1-dimethylamino-2-methyl-3-(3-m-tolyl)-pentan-3-ol Hydrochloride]	11.8 mg/kg	
CC[C@](O)(c1cccc(F)c1)[C@H](C)CN(C)C.Cl (racemic) [(7), (2RS, 3RS)-1-dimethylamino-3-(3-fluorophenyl)-2-methylpentan-3-ol Hydrochloride]	27.3 mg/kg	
CC[C@](O)(c1cccc(C(F)F)c1)[C@H](C)CN(C)C.Cl (racemic) [(8), (2RS,3RS)-3-(3-difluoromethylphenyl)-1-dimethylamino-2-methylpentan-3-ol Hydrochloride]	12.9 mg/kg	
CC[C@](O)(c1cccc(SC)c1)[C@H](C)CN(C)C.Cl (racemic) [(9), (2RS,3RS)-1-dimethylamino-2-methyl-3-(3-methylsulphanylphenyl)-pentan-3-ol Hydrochloride]	12.8 mg/kg	
CC[C@](O)(c1ccc2ccoc2c1)[C@H](C)CN(C)C.Cl (racemic) [(10), (2RS,3RS)-3-benzofuran-6-yl-1-dimethylamino-2-methylpentan-3-ol Hydrochloride]	12.9 mg/kg	
CCCC(O)(CCN(C)C)c1cccc(OC)c1.Cl (racemic) [(12), (3RS)-1-dimethylamino-3-(3-methoxyphenyl)-hexan-3-ol Hydrochloride]	19.9 mg/kg	
COc1cccc(C(O)(CCN(C)C)C(C)(C)C)c1.Cl (racemic) [(14), (3RS)-1-dimethylamino-3-(3-methoxyphenyl)-4,4-dimethylpentan-3-ol Hydrochloride]	10.5 mg/kg	
COc1cccc([C@](C)(O)[C@H](C)CN(C)C)c1 (racemic) [(15), Hydrochloride]	3.8 mg/kg	
CC[C@](O)(c1cccc(O)c1)[C@H](C)CN(C)C (racemic) [(16), (2RS,3RS)-3-(3-dimethylamino-1-ethyl-1-hydroxy-2-methylpropyl)-phenol Hydrochloride]		100%
CC[C@](O)(c1cccc(OC)c1)[C@H](C)CN(C)C [(+1), (+)-(2R,3R)-1-dimethylamino-3-(3-methoxyphenyl)-2-methylpentan-3-ol Hydrochloride]	1.1 mg/kg	
COc1cccc([C@](C)(O)[C@H](C)CN(C)C)c1 [(+15), Hydrochloride]		95.2%
CC[C@](O)(c1cccc(O)c1)[C@H](C)CN(C)C [(+16), (+) (2S,3S 1R,2R)-3-(dimethylamino-1-ethyl-1-hydroxy-2-methylpropyl)-phenol Hydrochloride]	1 mg/kg	
C[C@H](CN(C)C)[C@@](C)(O)c1cccc(O)c1 [(+17), (+)-(1R,2R)-3-(3-dimethylamino-1-hydroxy-1,2-dimethylpropyl)-phenolhydrochloride]		97.2%
CC[C@](F)(c1cccc(O)c1)[C@H](C)CN(C)C.Cl [(+18), (+)-(1R,2R)-3-(3-dimethylamino-1-ethyl-1-fluoro-2-methylpropyl)-phenol Hydrochloride]	15.7 mg/kg	
CC[C@H](c1cccc(O)c1)[C@H](C)CN(C)C.Cl [(+21), (+)-(1S,2R 2S)-3-(3-dimethylamino-1-ethyl-2-methylpropyl)-phenol hydrochloride]	1.9 mg/kg	
CC[C@@](O)(c1cccc(OC)c1)[C@@H](C)CN(C)C [(−1), (−)-(2S,3S)-1-dimethylamino-3-(3-methoxyphenyl)-2-methylpentan-3-ol Hydrochloride]	22.3 mg/kg	
CC[C@@](O)(c1cccc(O)c1)[C@@H](C)CN(C)C [(−16), (-) (2S,3S) 1S,2S)-3-(dimethylamino-1-ethyl-1-hydroxy-2-methylpropyl)-phenol Hydrochloride]	16.1 mg/kg	
C[C@@H](CN(C)C)[C@](C)(O)c1cccc(O)c1 [(−17), (−)-(1S,2S)-3-(3-dimethylamino-1-hydroxy-1,2-dimethylpropyl)-phenol Hydrochloride]		58.3%
